Structures can show the parent of a compound that is named as a salt. Where two headings read alike, the source gives them in different places.
Tests used:
XIAP-BIR3 = XIAP-BIR3 (Homo sapiens, UniProt P98170); experiment: Biacore SPR solution competition binding assay vs smac7mer peptide, XIAP-BIR3; details: 100 nM XIAP-BIR3, read-out: XIAP-BIR3 Binding Biacore (Competitive) EC50
Text: (§1) The compounds described herein above were profiled using a cellular assay (using Panc3.27 tumor cells) and a binding assay to determine the competition between the compounds of the present invention and smac7mer peptide for XIAP-BIR3 and cIAP1-BIR3 binding groove occupancy.
(§2) The present method includes utility of a Surface plasmon resonance (SPR)-based biosensor (Biacore™, GE Healthcare, Uppsala, Sweden) to examine competition between the compounds of the present invention and smac7mer peptide for XIAP-BIR3 and cIAP1-BIR3 binding groove occupancy.
(§3) Biacore™ utilizes the phenomenon of surface plasmon resonance (SPR) to detect and measure binding interactions. In a typical Biacore experiment, one of the interacting molecules is immobilized on a flexible dextran matrix while the interacting partner is flowed over the derivatized surface. A binding interaction results in an increase in mass on the sensor surface and a corresponding direct change in the refractive index of the medium in the vicinity of the sensor surface. Changes in refractive index or signal are recorded in resonance units (R.U.) Signal changes due to association and dissociation of complexes are monitored in a non-invasive manner, continuously and in real-time, the results of which are reported in the form of a sensorgram.
(§4) Biacore™ T100 (GE Healthcare, Uppsala, Sweden) was used to conduct all experiments reported herein. Sensor surface preparation and interaction analyses were performed at 25° C. Buffer and Biacore reagents were purchased from GE Healthcare. Running buffer containing 10 mM Hepes, pH7.4, 150 mM sodium chloride, 1.25 mM Dithiothreitol, 2% Dimethyl sulfoxide and 0.05% polysorbate 20 was utilized throughout all experiments.
(§5) Biotinylated smac7mer peptide was diluted to 10 nM in running buffer and captured onto a sensor surface pre-derivatized with streptavidin (sensor chip SA) towards peptide surface densities in the range 40-100 R.U. Peptide captured surfaces were blocked with 500 μM PEO2-Biotin (Thermo Scientific).
(§6) Interaction analyses were performed by first equilibrating each compound within a six point seven fold compound dilution series in the range 1 μM to 0.06 nM with either 100 nM XIAP-BIR3 or 6 nM cIAP1-BIR3 for at least one hour during instrument start-up procedures. Protein compound mixtures were then injected over reference and smac7mer peptide surfaces in series for 60 seconds at a flow-rate of 60 μL/min. Surface regeneration was performed at the end of each analysis cycle by a 30 second injection of 10 mM Glycine, pH 2.5, 1M Sodium Chloride, 0.05% polysorbate 20. Additionally, control compound samples and control XIAP-BIR3 or cIAP1-BIR3 samples were prepared and run at regular intervals to monitor surface and assay performance.
(§7) Data analyses were carried out using Biacore™ T100 evaluation software v2.0 to validate assay quality. Binding level report points were plotted versus logarithmic compound concentration values and analyzed in Graphpad prism 5 via non-linear regression using a one-site competition model. EC50 values were generated and used as a measure of inhibitor potency.

Panc3.27 tumor cells = experiment: Cellular assay: Panc3.27 tumor cell proliferation (Cell Titer Glo); type: cell-based; details: Panc3.27 cells, 4000 cells per well, 72 hour growth, CTG readout, percent control growth; read-out: PANC proliferation IC50
Procedure: as §1
Cellular Assay—Treatment of Panc3.27 Tumor Cells with Dimeric IAP Antagonists
On day one adherent Panc3.27 cells are plated into two 96-well, clear, flat bottom plates. All wells in row A contain 90 uL of media. All wells in rows B-G contain a total volume of 90 uL per well and 4000 cells per well for Panc3.27 cell lines. Plates are then incubated overnight for 18 hours at 37° C., 5% CO2.
On day two cells are treated with the compounds of formula M-L-M′. Treatments are done in triplicate. The compounds are first serially diluted in DMSO and then added to media giving a final concentration of 0.2% DMSO when added to cells. Cells are treated with 10 uL of serially diluted compounds of formula M-L-M′ at a final concentration of 1000 nM, 200 nM, 40 nM, 8 nM, 1.6 nM, 0.32 nM, 0.06 nM, 0.013 nM, 0.0026 nM, and one untreated well. Plate two is used as a time zero plate.
To measure cell viability 50 uL of Cell Titer Glo (CTG) solution is added to row A, media only and B, cells and media. CTG is purchased from Promega Corporation catalog number G7573. The solution is prepared according to manufacturer's instructions. CTG measures the amount of ATP released from viable cells that is proportional to the number of cells in each well. After incubating for ten minutes with CTG plates are measured on a luminescent reader at 700 nm wavelength. Read time is approximately one second per well for a 96-well plate.
On day five 50 uL of CTG is added to plate one, rows A-G, incubated for 10 minutes at room temperature and read on a luminescent reader. Raw data is adjusted to account for the time zero plate as well as background noise. Triplicate values are averaged and percent control growth is calculated. Percent control growth is calculated using the following logical test: If well read data point (a) is greater than time zero data point (t=0), then 100*[(a)−(t=0)]/[(72 hour total growth)−(t=0)], OR 100*[(a)−(t=0)]/[(t=0)]. Data is represented by line graph with the concentration of compound on the x axis and percent control growth on the y axis.

cIAP1-BIR3 = cIAP1-BIR3 (Homo sapiens, UniProt Q13490); experiment: Biacore SPR solution competition binding assay vs smac7mer peptide, cIAP1-BIR3; details: 6 nM cIAP1-BIR3, read-out: CIAP-BIR3 Binding Biacore (Competitive) EC50
Sequence of cIAP1-BIR3 (Q13490 253-363 limits assumed): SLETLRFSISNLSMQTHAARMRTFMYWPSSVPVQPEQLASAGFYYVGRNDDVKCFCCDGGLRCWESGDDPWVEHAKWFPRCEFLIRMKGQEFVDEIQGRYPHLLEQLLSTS
Text: as §1, §2, §3, §4, §5, §6, §7

[1] = SPR competition with captured smac7mer peptide, 25° C.

Sequence of XIAP-BIR3 (P98170 241-356 limits assumed): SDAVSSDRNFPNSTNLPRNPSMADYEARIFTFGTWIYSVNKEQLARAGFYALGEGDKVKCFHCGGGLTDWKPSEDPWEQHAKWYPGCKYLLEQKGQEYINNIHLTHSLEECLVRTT

Compound | EC50 (XIAP-BIR3; [1]) [nM] | IC50 (Panc3.27 tumor cells) [nM] | EC50 (cIAP1-BIR3; Tested as the citrate salt (footnote 1), SPR competition with smac7mer peptide) [nM] | EC50 (XIAP-BIR3; Tested as the trifluoroacetate salt (footnote 2), SPR competition with smac7mer peptide) [nM] | EC50 (cIAP1-BIR3; [1]) [nM]
CN[C@@H](C)C(=O)N[C@H](C(=O)N1CCC[C@H]1c1cncc(-c2ccc(F)c(C(=O)NCCCOCCOCCOCCOCCOCCCNC(=O)c3cc(-c4cncc([C@@H]5CCCN5C(=O)[C@@H](NC(=O)[C@H](C)NC)C5CCCCC5)c4)ccc3F)c2)c1)C1CCCCC1 [Example 1A-1] | 353 to 359 | 0.15 to 2.87 | 1.55 to 1.6 | – | –
CN[C@@H](C)C(=O)N[C@H](C(=O)N1CCC[C@H]1c1cncc(-c2ccc(F)c(C(=O)NCc3ccc(-c4ccc(CNC(=O)c5cc(-c6cncc([C@@H]7CCCN7C(=O)[C@@H](NC(=O)[C@H](C)NC)C7CCCCC7)c6)ccc5F)cc4)cc3)c2)c1)C1CCCCC1 [Example 2C-2, (S,S,S)—N,N′-(biphenyl-4,4′-diylbis(methylene))bis(5-(5-((S)-1-((S)-2-cyclohexyl-2-((S)-2-(methylamino)propanamido)acetyl)pyrrolidin-2-yl)pyridin-3-yl)-2-fluorobenzamide)] | – | < 0.0026 | – | 2330 to 2390 | 0.98 to 0.99
CN[C@@H](C)C(=O)N[C@H](C(=O)N1CCC[C@H]1c1cncc(-c2ccc(F)c(C(=O)NCCCOCCOCCCNC(=O)c3cc(-c4cncc([C@@H]5CCCN5C(=O)[C@@H](NC(=O)[C@H](C)NC)C5CCCCC5)c4)ccc3F)c2)c1)C1CCCCC1 [Example 2L-2] | 480 to 488 | 0.01 to 0.56 | – | – | 3.35 to 3.38
CN[C@@H](C)C(=O)N[C@H](C(=O)N1CCC[C@H]1c1cncc(-c2ccc(F)cc2CNC(=O)c2ccc(-c3ccc(C(=O)NCc4cc(F)ccc4-c4cncc([C@@H]5CCCN5C(=O)[C@@H](NC(=O)[C@H](C)NC)C5CCCCC5)c4)cc3)cc2)c1)C1CCCCC1 [Example 3A, N4,N4′-bis(2-(5-((S)-1-(S)-2-cyclohexyl-2-((S)-2-(methylamino)-propanamido)acetyl)pyrrolidin-2-yl)pyridin-3-yl)-5-fluorobenzyl)biphenyl-4,4′-dicarboxamide, trifluoroacetate] | 126 to 127 | 0.0026 to 0.0084 | – | – | 0.86 to 0.88
CN[C@@H](C)C(=O)N[C@H](C(=O)N1CCC[C@H]1c1cncc(-c2ccc(F)c(C(=O)NCCCOCCOCCOCCCNC(=O)c3cc(-c4cncc([C@@H]5CCCN5C(=O)[C@@H](NC(=O)[C@H](C)NC)C5CCCCC5)c4)ccc3F)c2)c1)C1CCCCC1 [Example 2J-2] | 156 | 0.03 to 0.59 | – | – | 1.39 to 1.4
CN[C@@H](C)C(=O)N[C@H](C(=O)N1CCC[C@H]1c1cncc(-c2ccc(F)c(C(=O)N3CC4(C3)CN(C(=O)c3cc(-c5cncc([C@@H]6CCCN6C(=O)[C@@H](NC(=O)[C@H](C)NC)C6CCCCC6)c5)ccc3F)C4)c2)c1)C1CCCCC1 [Example 2M-2] | 176 to 177 | 9.02 to 40.8 | – | – | 3.74 to 3.75
CN[C@@H](C)C(=O)N[C@H](C(=O)N1CCC[C@H]1c1cncc(-c2ccc(F)c(C(=O)NNC(=O)c3cc(-c4cncc([C@@H]5CCCN5C(=O)[C@@H](NC(=O)[C@H](C)NC)C5CCCCC5)c4)ccc3F)c2)c1)C1CCCCC1 [Example 2N-2] | 75.2 to 75.5 | 0.0026 to 0.02 | – | – | 1.27 to 1.36
CN[C@@H](C)C(=O)N[C@H](C(=O)N1CCC[C@H]1c1cncc(-c2ccc(F)c(C(=O)NCCOCCOCCNC(=O)c3cc(-c4cncc([C@@H]5CCCN5C(=O)[C@@H](NC(=O)[C@H](C)NC)C5CCCCC5)c4)ccc3F)c2)c1)C1CCCCC1 [Example 2H-1] | 244 to 252 | 0.03 to 0.07 | – | – | 1.84 to 1.89
CN[C@@H](C)C(=O)N[C@H](C(=O)N1CCC[C@H]1c1cncc(-c2ccc(F)c(C(=O)NCCCCCCCCCCNC(=O)c3cc(-c4cncc([C@@H]5CCCN5C(=O)[C@@H](NC(=O)[C@H](C)NC)C5CCCCC5)c4)ccc3F)c2)c1)C1CCCCC1 [Example 2D-1] | 1520 to 1920 | 0.0026 to 0.15 | – | – | 1.35 to 2.17
CN[C@@H](C)C(=O)N[C@H](C(=O)N1CCC[C@H]1c1cncc(-c2ccc(F)c(C(=O)NCCCCCCNC(=O)c3cc(-c4cncc([C@@H]5CCCN5C(=O)[C@@H](NC(=O)[C@H](C)NC)C5CCCCC5)c4)ccc3F)c2)c1)C1CCCCC1 [Example 2F-1] | 305 to 306 | 0.0026 to 0.01 | – | – | 1.34 to 1.36
CN[C@@H](C)C(=O)N[C@H](C(=O)N1CCC[C@H]1c1cncc(-c2ccc(F)c(C(=O)NCCCCCCCCNC(=O)c3cc(-c4cncc([C@@H]5CCCN5C(=O)[C@@H](NC(=O)[C@H](C)NC)C5CCCCC5)c4)ccc3F)c2)c1)C1CCCCC1 [Example 2G-1, (S,S,S)—N,N′-(octane-1,8-diyl)bis(5-(5-((S)-1-((S)-2-cyclohexyl-2-((S)-2-(methylamino)propanamido)acetyl)pyrrolidin-2-yl)pyridin-3-yl)-2-fluorobenzamide)] | 426 to 495 | 0.0026 to 0.03 | – | – | 1.26 to 1.31
CN[C@@H](C)C(=O)N[C@H](C(=O)N1CCC[C@H]1c1cncc(-c2ccc(F)c(C(=O)NCCNC(=O)c3cc(-c4cncc([C@@H]5CCCN5C(=O)[C@@H](NC(=O)[C@H](C)NC)C5CCCCC5)c4)ccc3F)c2)c1)C1CCCCC1 [Example 2A-1] | 135 to 136 | 2.11 to 7.69 | – | – | 1.1 to 1.11
CN[C@@H](C)C(=O)N[C@H](C(=O)N1CCC[C@H]1c1cncc(-c2ccc(F)c(C(=O)N[C@H]3CC[C@H](NC(=O)c4cc(-c5cncc([C@@H]6CCCN6C(=O)[C@@H](NC(=O)[C@H](C)NC)C6CCCCC6)c5)ccc4F)CC3)c2)c1)C1CCCCC1 [Example 2K-1] | 321 to 322 | < 0.0026 | – | – | 1.65 to 1.66
CN[C@@H](C)C(=O)N[C@H](C(=O)N1CCC[C@H]1c1cncc(-c2ccc(F)c(C(=O)NCCCCCCCCCCCCNC(=O)c3cc(-c4cncc([C@@H]5CCCN5C(=O)[C@@H](NC(=O)[C@H](C)NC)C5CCCCC5)c4)ccc3F)c2)c1)C1CCCCC1 [Example 2E-1] | > 1000 | 0.07 to 4.93 | – | – | 5.65 to 6.37
CN[C@@H](C)C(=O)N[C@H](C(=O)N1CCC[C@H]1c1cncc(-c2ccc(F)c(C(=O)NCCCCNC(=O)c3cc(-c4cncc([C@@H]5CCCN5C(=O)[C@@H](NC(=O)[C@H](C)NC)C5CCCCC5)c4)ccc3F)c2)c1)C1CCCCC1 [Example 2I-1] | 318 to 326 | 0.0026 to 0.4 | – | – | 2.79 to 2.8
